The values that follow come from patent publication US9226517B2, “Use of iminocyclitols as inhibitors of bacterial adherence to epithelial cells” (Taihua Shouyue (Hong Kong) International Co Limited, priority 2010, dated 2016).

One assay has as its system S. mutans. Conditions: Islam et al. 2008; compound isolated from M. alba; cited from earlier work.
The next assay concerns Lactobacillus casei. In words: Bacterial agglutination assay. It counts as cell-based. Conditions: Example 2; 90 min room temperature. The procedure: (§1) Bacteria used in the assay were Escherichia coli, Salmonella tphimurium, Streptococcus mutans, Lactobacillus casei and Bifidobacterium sp., from over night cultures. The bacteria were inoculated in the 100 ml flask with Luria medium. The bacteria were grown for 24 h at 37° C. After incubation, Agar Luria medium plates were inoculated. After 24 h suspensions of each strain were prepared in PBS medium (10^8 CFU/ml). Serial dilutions of the product to be tested, D-fagomine tartrate (10 ppm, 20 ppm, 2000 ppm) were made. The dilutions were mixed with bacterial suspensions in a 1:1 ratio. After 90 min. at room temperature the suspensions were observed under optical microscope. They were compared with the control culture without any product added. The Escherichia coli and Salmonella tphimurium were compared with a positive control culture (mannose 0.05M).

A further assay relates to Bifidobacterium sp. Description: Bacterial agglutination assay. It counts as cell-based. As to conditions: Example 2; 90 min room temperature. The protocol: as §1
The next assay relates to Salmonella tphimurium. Description: Bacterial agglutination assay. Conditions: for agglutination relative to the corresponding positive control: positive control mannose 0.05M. It is filed as cell-based. The procedure:
(§2) Bacteria used in the assay were Escherichia coli, Salmonella tphimurium and Streptococcus mutans, from over night cultures. The bacteria were inoculated in the 100 ml flask with Luria medium. The bacteria were grown for 24 h at 37° C. After incubation, Agar Luria medium plates were inoculated. After 24 h suspensions of each strain were prepared in PBS medium (10^8 CFU/ml). Serial dilutions of the products to be tested, D-fagomine and D-fagomine tartrate (20 ppm, 200 ppm, 2000 ppm) were made. The dilutions were mixed with bacterial suspensions in a 1:1 ratio. After 90 min. at room temperature the suspensions were observed under optical microscope. They were compared with the control culture without any product added.
as §1

In assay [1] the test system is Escherichia coli. Description: Bacterial agglutination assay. It counts as cell-based. Conditions: for agglutination relative to the corresponding positive control: positive control mannose 0.05M. The procedure:
as §2, §1

Assay [2] concerns Streptococcus mutans. In words: Bacterial agglutination assay. It is filed as cell-based. The procedure: as §2, §1
Another assay concerns Salmonella. In words: Adhesion to mucus (mucosal epitelial cells). It counts as cell-based. The procedure:
(§3) • Mucus: mucosal epitelial cells • Adhesion to mucus. Protocol Day 1
(§4) The bacteria was inoculated in the tube, with 3 ml Luria medium. The bacteria were grown for 24 h at 37° C. The tube was incubated overnight (1 10^8-1 10^9 UCF/ml).
(§5) The mucus (1 ml) is defrosted at room temperature. PBS medium (100 ml) was prepared. The defrosted mucus was centrifuged at 8000 rpm for 10 minutes. The mucus (1 ml) was transferred to an aliquot with sterile PBS (99 ml) (1:100). Each well is inoculated with 2.5 ml from the mixture and the plate is kept in the fridge (4° C.) overnight.
(§6) The plate was taken out from the fridge. 2 ml was extracted from each well. PBS (1 ml) was added, then was extracted, at the end there was 0.5 ml in the well.
(§7) The tubes that were grown overnight were diluted (1 10^7 UCF/ml).
(§8) The final volume in each well was: PBS 0.5 ml plus bacterial suspension 0.5 ml plus D-fagomine 0.5 ml (or PBS in control case).
(§9) Two plates were prepared (duplicated strains). Product concentration in the wells (10 ppm, 20 ppm, 40 pppm). Mannose concentration 0.05M (control well).
(§10) The wells were inoculated and the plates were incubated at 37° C. for 90 minutes.
(§11) After the 90 minutes, the supernatant of each well (10 μl) were observed under optical microscope.
(§12) It was added 1 ml of each well in eppendorfs. The eppendords were kept on the fridge. Two wash were made with PBS. The wells washed of the same strain were recoleted in a falcon tube and they were kept at 4° C. PBS (1 ml) was added in each well and the plates were inoculated with 100 μl of each tubes at the adecuated dilutions.
(§13) The plates were recounted

For assay [3], the system named is Escherichia coli. Description: Adhesion to mucus (mucosal epitelial cells). It is filed as cell-based. As to conditions: for Bacteria in supernatant: duplicates 1 and 2. The procedure: as §3, §4, §5, §6, §7, §8, §9, §10, §11, §12, §13
In assay [4] the test system is Streptococcus mutans. Description: Glass surface adherence assay. As to conditions: for G/MG (Glass/Mannose glass): vs mannose 0.05 M. It counts as cell-based. The procedure:
Glass surface adherence assay was performed. The bacterium used in the assay was Streptococcus mutans from over night cultures (1 10^10 UCF/ml). The bacterium was grown for 18 h at 37° C. in PBS medium. The bacteria from the overnight culture (0.25 ml) were grown for 18 h at […] in a glass dish with the specific medium (0.5 ml). After the 18 h, 0.25 ml of D-fagomine (10 ppm, 20 ppm and 40 ppm) was added. In the control plate was added only PBS. After 90 min. the cells were transfered (0.5 ml) to a falcon tube, then were washed two times with PBS (0.5 ml each time). The wash of each bacteria was collected in a falcon tube and was kept at 4° C. The cells (100 μl) were seeded in the plates in TSA medium. The cells adhered were scrapped. In each well, it was added 0.5 ml of sterile PBS. The plaques with 100 μl were inoculated. The plaques were counted.

For another assay, the system named is Bifidobacterium. Description: Adhesion to mucus. It counts as cell-based. The procedure: (§14) • Adhesion to mucus. Protocol Day 1
(§15) The bacteria was inoculated in the tube with 3 ml Luria medium. The bacteria were grown for 24 h at 37° C. The tube was incubated overnight (1 10^7-1 10^8 UCF/ml).
(§16) The mucus (1 ml) is defrosted at room temperature. 100 ml of PBS medium was prepared. The defrosted mucus (1 ml) was centrifuged at 8000 rpm for 10 minutes. The mucus (1 ml) was transferred to an aliquot with sterile PBS (99 ml). Each well is inoculated with 2.5 ml from the mixture and the plate is kept in the fridge (4° C.) overnight.
(§17) The plate was taken out from the fridge an the wash was made. 2 ml was extracted from each well. PBS (1 ml) was added, then was extracted, at the end there was 0.5 ml in the well.
(§18) The tubes that were grown overnight, were diluted (1 10^7 UCF/ml).
(§19) The final volume in each well was: PBS 0.5 ml plus bacterial suspension 0.5 ml plus D-fagomine 0.5 ml (or PBS in control case). It was prepared 2 plates (duplicated strains). Product concentration in the wells (10 ppm, 20 ppm, 40 pppm). Mannose concentration 0.05M (control well). The wells were inoculated and the plates were incubated at 37° C. for 90 minutes. After the 90 minutes, the supernatant of each well (10 μl) were observed under optical microscope. It was added 1 ml of each well in eppendorfs. The eppendords were kept on the fridge. Two wash were made with PBS. The wells washes of the same strain were recoleted in a falcon tube and they were kept at 4° C. PBS (1 ml) was added in each well and the plates were inoculated with 100 μl of each tubes at the adecuated dilutions.
as §13

The subject of assay [5] is Lactobacillus acidophilus. Description: Adhesion to mucus. It counts as cell-based. The protocol: as §14, §15, §16, §17, §18, §19, §13
The conditions of assay [6]: Castillo et al., Organic Letter 2006; cited from earlier work.
Where [7] appears, read: Example 1, 20 ppm, 200 ppm and 2000 ppm, 90 min room temperature, vs control culture.
[8] abbreviates: Example 2, 20 ppm and 200 ppm, 90 min room temperature.
Setting [9] is: D-fagomine 40 ppm, duplicates 1 and 2.
Where [10] appears, read: independently of the D-fagomine concentration (10, 20, 40 ppm).

Each structure is given as a SMILES string. Values joined by “and” are separate entries in the source; they are usually repeats but may differ in a detail not shown here. Identical values can stand only once.

In the case of `OC[C@H]1NC[C@H](O)[C@@H](O)[C@@H]1O` [1-deoxynojirimycin], the “anti-microbial activity against S. mutans” value with S. mutans is on record as “anti-microbial activity”.

With `O=C(O)C(O)C(O)C(=O)O.OC[C@H]1NCC[C@@H](O)[C@@H]1O` [D-fagomine tartrate], the “agglutination of the cells (optical microscope)” value (“agglutination of the cells” for short) in the assay with Lactobacillus casei is listed as “not agglutinated”; with Bifidobacterium sp., “not agglutinated”; in the assay with Salmonella tphimurium (setting [7]), “agglutinated”; in the assay with Salmonella tphimurium (Example 2, 10 ppm), “not at 10 ppm”; in the assay with Salmonella tphimurium (setting [8]) it was “agglutinated”; in the assay with Escherichia coli [1] (setting [7]) it was “agglutinated”. Besides, the “agglutination of the cells” value in the assay on Escherichia coli [1] (Example 2, 10 ppm) is given as “not at 10 ppm”; in the assay with Escherichia coli [1] (setting [8]) it was “agglutinated”; in the assay with Streptococcus mutans [2] (setting [7]), “agglutinated”; with Streptococcus mutans [2] (Example 2, 10 ppm) it was “not at 10 ppm”; in the assay on Streptococcus mutans [2] (setting [8]) it was “agglutinated”. Besides, the “agglutination relative to the corresponding positive control” value is given as “about 60%” in the assay with Salmonella tphimurium (20 ppm), “about 70%” with Salmonella tphimurium (200 ppm), “about 60%” in the assay on Escherichia coli [1] (20 ppm) and “about 70%” with Escherichia coli [1] (200 ppm).

With `OC[C@H]1NCC[C@@H](O)[C@@H]1O` [D-fagomine, (2R, 3R, 4R)-2-hydroxymethylpiperidine-3,4-diol], the Bacteria in supernatant with Salmonella (D-fagomine 10 ppm, duplicates 1 and 2) was 78.4% and 91.8%; with Salmonella (D-fagomine 20 ppm, duplicates 1 and 2) it was 98.2% and 95.5%; with Salmonella (setting [9]) it was 98.2% and 84.1%; with Escherichia coli [3] (D-fagomine 10 ppm), 94.5% and 95.1%; in the assay on Escherichia coli [3] (D-fagomine 20 ppm), 96.3% and 99.0%; in the assay on Escherichia coli [3] (D-fagomine 40 ppm), 99.2% and 98.6%. The molecule also returned a Supernatant/mucus with Salmonella (setting [9]) of 5.27 UCF/ml. Also, the “agglutination of microorganisms with the mucus” value with Salmonella (setting [10]) and with Escherichia coli [3] (setting [10]) was “not agglutinated with the mucus” throughout. The “antiadherence activity in respect of the control” value with Streptococcus mutans [4] (10 ppm, 20 ppm and 40 ppm) was “has antiadherence activity”. Further, the “PG/CG (Product glass/Control glass without product)” value in the assay with Streptococcus mutans [4] (D-fagomine 10 ppm) was found to be 1.60. Besides, the “G/MG (Glass/Mannose glass)” value in the assay with Streptococcus mutans [4] (D-fagomine 10 ppm) was 1.60; with Streptococcus mutans [4] (D-fagomine 20 ppm) it was 1.35. Further, the “Product M/Control M” value in the assay on Bifidobacterium (D-fagomine 20 ppm) worked out at 1.14; in the assay on Bifidobacterium (D-fagomine 40 ppm) it was 3.50; in assay [5] (D-fagomine 10 ppm) it was 5.58; in [5] (D-fagomine 20 ppm), 5.58; in [5] (D-fagomine 40 ppm), 3.94. The “M/Manose M” value in [5] (D-fagomine 10 ppm) and in [5] (D-fagomine 20 ppm) was 1.31 each time. The “agglutination of the cells” value in the assay with Salmonella tphimurium (setting [7]), in the assay with Escherichia coli [1] (setting [7]) and in the assay on Streptococcus mutans [2] (setting [7]) was “agglutinated” in each case. Also, the antimicrobial activity entry in assay [6] is “do not show antimicrobial activity”.
